From PubChem BioAssay (NCI)
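Cultured in 96-well plates, cells were exposed to test compound for 48 hours across five concentrations. The concentration for 50% growth inhibition is given as GI50. TGI denotes the concentration required for complete inhibition of growth.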

How the values were obtained:
Assay in all cases: growth of human tumour cells (NCI), 48 h; in the data active = GI50 below about 0.43 µM; inactive = the rest
[1] = system: CAKI-1 renal
[2] = system: M14 melanoma
[3] = system: NCI-H522 lung
[4] = system: SK-OV-3 ovarian
[5] = system: A549 NSCLC
[6] = system: MDA-MB-435
[7] = system: NCI-H23 lung
[8] = system: OVCAR-5 ovarian
[9] = system: SK-MEL-28 melanoma
[10] = system: SF-295 CNS
[11] = system: OVCAR-8 ovarian
[12] = system: MCF7 breast
[13] = system: HL-60(TB) leukemia
[14] = system: TK-10 renal
[15] = system: HCT-116 colon
[16] = system: NCI-H460 lung
[17] = system: LOX IMVI melanoma
[18] = system: IGROV1 ovarian
[19] = system: 786-0 renal
[20] = system: UO-31 renal
[21] = system: BT-549 breast
[22] = system: KM12 colon
[23] = system: UACC-257 melanoma
[24] = system: MDA-MB-231 breast
[25] = system: RXF 393 renal
[26] = system: K-562 leukemia
[27] = system: MOLT-4 leukemia
[28] = system: SF-539 CNS
[29] = system: SK-MEL-2 melanoma
[30] = system: HS 578T breast
[31] = system: CCRF-CEM leukemia
[32] = system: HCT-15 colon
[33] = system: NCI/ADR-RES ovarian
[34] = system: OVCAR-4 ovarian
[35] = system: HCC-2998 colon
[36] = system: A498 renal
[37] = system: PC-3 prostate
[38] = system: SW-620 colon
[39] = system: NCI-H226 lung
[40] = system: EKVX NSCLC
[41] = system: U251 CNS
[42] = system: OVCAR-3 ovarian
[43] = system: HT29 colon
[44] = system: MALME-3M melanoma
[45] = system: HOP-62 NSCLC
[46] = system: ACHN renal
[47] = system: SNB-19 CNS
[48] = system: UACC-62 melanoma
[49] = system: SF-268 CNS
[50] = system: COLO 205 colon
[51] = system: DU-145 prostate
[52] = system: SN12C renal
[53] = system: T-47D breast
[54] = system: SK-MEL-5 melanoma
[55] = system: RPMI-8226 leukemia
[56] = system: SR leukemia
[57] = system: SNB-75 CNS

Cc1ccc(O)cc1 (tested in a mixture with another compound)
> 100 µM: TGI [1] | TGI [2] | TGI [3] | TGI [4] | TGI [5] | TGI [6] | TGI [7] | TGI [8] | TGI [9] | TGI [10] | TGI [11] | TGI [12] | TGI [13] | TGI [14] | TGI [15] | TGI [16] | TGI [17] | TGI [18] | TGI [19] | TGI [20] | TGI [21] | TGI [22] | TGI [23] | TGI [24] | TGI [25] | TGI [26] | TGI [27] | TGI [28] | TGI [29] | TGI [30] | TGI [31] | TGI [32] | TGI [33] | TGI [34] | TGI [35] | TGI [36] | TGI [37] | TGI [38] | TGI [39] | TGI [40] | TGI [41] | TGI [42] | TGI [43] | TGI [44] | TGI [45] | TGI [46] | TGI [47] | TGI [48] | TGI [49] | TGI [50] | TGI [51] | TGI [52] | TGI [53] | TGI [54] | TGI [55]

Oc1[nH]c2ccccc2c1/C=c1/ccc2c(c1)N=C(c1cc(F)cc(F)c1)N=2
8.06 µM: TGI [15]
30 µM: TGI [52]
31.4 µM: TGI [28]
17.5 µM: TGI [40] | TGI [55]
19.1 µM: TGI [54]
15.1 µM: TGI [1]
29 µM: TGI [4]
28.1 µM: TGI [18]
19.5 µM: TGI [24]
17.7 µM: TGI [7] | TGI [33] | TGI [57]
14.1 µM: TGI [12] | TGI [32]
25.2 µM: TGI [45]
13.8 µM: TGI [26]
18.9 µM: TGI [17]
17.6 µM: TGI [41]
22.8 µM: TGI [16]
26.4 µM: TGI [23]
13.5 µM: TGI [34]
17 µM: TGI [36]
20.8 µM: TGI [29]
33.3 µM: TGI [11]
23.7 µM: TGI [5]
27.7 µM: TGI [14]
34.5 µM: TGI [39]
20.3 µM: TGI [48]
16.7 µM: TGI [37]
5.08 µM: TGI [6]
36.4 µM: TGI [8]
21.3 µM: TGI [46] | TGI [53]
25 µM: TGI [25]
20.7 µM: TGI [35]
23.4 µM: TGI [50]
12.1 µM: TGI [21]
19 µM: TGI [22]
18.6 µM: TGI [3]
17.9 µM: TGI [42]
22.2 µM: TGI [51]
6.91 µM: TGI [31]
40.5 µM: TGI [13]
inactive: GI50 [1] 2.47 µM | GI50 [2] 2.7 µM | GI50 [3] 3.64 µM | GI50 [4] 14.2 µM | GI50 [5] 4.65 µM | GI50 [6] 1.92 µM | GI50 [7] 4.13 µM | GI50 [8] 16.8 µM | GI50 [9] 7.24 µM | GI50 [10] 2.84 µM | GI50 [11] 4.56 µM | GI50 [56] 2.43 µM | GI50 [12] 2.84 µM | GI50 [13] 12.6 µM | GI50 [14] 14 µM | GI50 [15] 2.43 µM | GI50 [16] 7.04 µM | GI50 [17] 3.94 µM | GI50 [18] 10.5 µM | GI50 [19] 10 µM | GI50 [20] 3.42 µM | GI50 [21] 2.13 µM | GI50 [22] 4.36 µM | GI50 [23] 10.6 µM | GI50 [24] 3.63 µM | GI50 [25] 8.2 µM | GI50 [26] 3.28 µM | GI50 [27] 3.53 µM | GI50 [28] 13.6 µM | GI50 [29] 5.71 µM | GI50 [30] 5.08 µM | GI50 [31] 2.44 µM | GI50 [32] 3.52 µM | GI50 [33] 4.18 µM | GI50 [34] 3.33 µM | GI50 [35] 5.65 µM | GI50 [36] 1.53 µM | GI50 [37] 3.37 µM | GI50 [38] 3.55 µM | GI50 [39] 11.4 µM | GI50 [40] 2.63 µM | GI50 [41] 3.89 µM | GI50 [42] 5 µM | GI50 [43] 3.6 µM | GI50 [44] 10.1 µM | GI50 [45] 10.4 µM | GI50 [46] 7.39 µM | GI50 [47] 9.62 µM | GI50 [48] 4.18 µM | GI50 [49] 9.44 µM | GI50 [50] 8.45 µM | GI50 [51] 10.2 µM | GI50 [57] 3.22 µM | GI50 [52] 11.4 µM | GI50 [53] 4.55 µM | GI50 [54] 5.82 µM | GI50 [55] 3.22 µM
28 µM: TGI [47]
22 µM: TGI [19]
10.9 µM: TGI [10]
20.1 µM: TGI [20]
31.9 µM: TGI [30]
20.2 µM: TGI [9]
9.21 µM: TGI [56]
25.6 µM: TGI [49]
14.6 µM: TGI [27]
16.2 µM: TGI [43]
13.6 µM: TGI [2]
28.3 µM: TGI [44]
15.8 µM: TGI [38]
